The values below come from ChEMBL document CHEMBL5380833 (J Med Chem, 2023).

Where only a bound is given, the exact number is not on record here.

In assay [1] the target is T1, Protein cereblon/Tyrosine-protein kinase ITK/TSK (Homo sapiens, UniProt Q08881+Q96SW2). Description: PROTAC activity at CRBN/ITK in human Jurkat cells assessed as induction of ITK degradation by Western blot analysis. Type of assay: cell-based.
Target sequence in this assay (Q96SW2 whole entry, one chain of several): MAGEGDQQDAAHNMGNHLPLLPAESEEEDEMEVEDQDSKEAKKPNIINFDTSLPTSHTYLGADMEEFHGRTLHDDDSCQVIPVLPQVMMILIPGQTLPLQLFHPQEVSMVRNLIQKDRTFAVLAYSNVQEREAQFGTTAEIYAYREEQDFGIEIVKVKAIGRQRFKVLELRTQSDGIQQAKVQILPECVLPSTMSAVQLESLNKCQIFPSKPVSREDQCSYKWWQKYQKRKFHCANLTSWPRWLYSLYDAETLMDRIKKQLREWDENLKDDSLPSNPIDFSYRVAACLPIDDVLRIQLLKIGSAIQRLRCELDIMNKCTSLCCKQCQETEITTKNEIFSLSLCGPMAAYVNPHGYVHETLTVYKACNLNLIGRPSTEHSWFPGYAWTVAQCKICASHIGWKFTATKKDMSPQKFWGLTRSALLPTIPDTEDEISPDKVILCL
Assay [2] deals with T1, Protein cereblon/Tyrosine-protein kinase ITK/TSK. In words: PROTAC activity at CRBN/ITK in human Jurkat cells assessed as maximum degradation at 0.01 to 10 uM by Western blot analysis relative to control. The assay is classed as cell-based. As to conditions: dose 0.01-10 µM; call rule not given here.
Target sequence in this assay (Q96SW2 whole entry, looked up, one chain of several): as the sequence (Q96SW2 whole entry, one chain of several) above
The target of assay [3] is T2, Tyrosine-protein kinase ITK/TSK (Homo sapiens, UniProt Q08881).
T2 sequence (Q08881 whole entry): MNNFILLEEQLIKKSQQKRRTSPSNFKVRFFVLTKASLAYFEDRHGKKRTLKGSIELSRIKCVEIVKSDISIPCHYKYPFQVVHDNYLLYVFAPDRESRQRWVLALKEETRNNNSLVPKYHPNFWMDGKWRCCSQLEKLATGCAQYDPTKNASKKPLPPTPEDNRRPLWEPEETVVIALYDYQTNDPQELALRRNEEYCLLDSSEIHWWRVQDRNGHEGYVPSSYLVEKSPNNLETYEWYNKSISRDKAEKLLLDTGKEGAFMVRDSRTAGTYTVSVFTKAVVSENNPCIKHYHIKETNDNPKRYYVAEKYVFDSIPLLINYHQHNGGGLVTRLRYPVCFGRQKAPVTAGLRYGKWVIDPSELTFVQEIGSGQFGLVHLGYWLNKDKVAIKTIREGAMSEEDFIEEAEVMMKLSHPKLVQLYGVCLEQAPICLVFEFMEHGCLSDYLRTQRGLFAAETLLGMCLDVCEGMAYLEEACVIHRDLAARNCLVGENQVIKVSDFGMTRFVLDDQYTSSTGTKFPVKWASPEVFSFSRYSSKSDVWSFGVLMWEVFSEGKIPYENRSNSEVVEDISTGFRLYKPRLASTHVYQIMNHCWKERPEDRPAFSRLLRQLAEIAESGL
Description: Inhibition of ITK (unknown origin).

The next assay has as its target Interleukin-2 (Homo sapiens, UniProt P60568). Description: Inhibition of IL-2 in human Jurkat T cells pretreated with compound for 16 hrs followed by anti-CD3 stimulation by ELISA analysis. Type of assay: cell-based.

Interleukin-2, sequence (P60568 whole entry): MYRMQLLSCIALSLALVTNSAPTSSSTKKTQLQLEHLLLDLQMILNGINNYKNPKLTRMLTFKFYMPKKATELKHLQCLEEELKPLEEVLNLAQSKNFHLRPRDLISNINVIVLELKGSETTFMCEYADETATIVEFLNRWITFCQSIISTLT

Consider `CN(CCOCCC(=O)NC1=CCC2C(=O)N(C3CCC(=O)NC3=O)C(=O)C2=C1)CC[C@@H](c1ccccc1)n1cc(NC(=O)c2n[nH]c3c2CCC(C)(C)C3)cn1` (some centres not stated), for which the EC50 in assay [1] (read-out: EC50) was 15.6 nM. In assay [2], the Emax worked out at 97%.

As for `CN(CCOCCNC(=O)CNc1cccc2c1C(=O)N(C1CCC(=O)NC1=O)C2=O)CC[C@@H](c1ccccc1)n1cc(NC(=O)c2n[nH]c3c2CCC(C)(C)C3)cn1` (some centres not stated), the EC50 in assay [1] (read-out: EC50) stood at 32.7 nM. For the same compound, the Emax in assay [2] came to 99%.

Consider `CN(CCOCCOCC(=O)Nc1ccc2c(c1)C(=O)N(C1CCC(=O)NC1=O)C2=O)CC[C@@H](c1ccccc1)n1cc(NC(=O)c2n[nH]c3c2CCC(C)(C)C3)cn1` (some centres not stated), for which the EC50 in assay [1] (read-out: EC50) came out at 26.7 nM. In addition, in assay [2], the Emax was found to be 95%.

Consider `CN(CCCCCCCCC(=O)Nc1ccc2c(c1)C(=O)N(C1CCC(=O)NC1=O)C2=O)CC[C@@H](c1ccccc1)n1cc(NC(=O)c2n[nH]c3c2CCC(C)(C)C3)cn1` (some centres not stated), for which the concentration for a half-maximal effect (EC50) in assay [1] (read-out: EC50) stood at 5.5 nM. For the same compound, the Emax in assay [2] amounted to 93%.

`CN(CCCCCCCCCCC(=O)Nc1ccc2c(c1)C(=O)N(C1CCC(=O)NC1=O)C2=O)CC[C@@H](c1ccccc1)n1cc(NC(=O)c2n[nH]c3c2CCC(C)(C)C3)cn1` (some centres not stated): the EC50 in assay [1] (read-out: EC50) was 75.4 nM. In addition, the Emax in assay [2] amounted to 82%.

Compound `COc1cccc(-n2c(=O)c(C(=O)Nc3ccc(-c4nc(-c5ccnc(N6CC(OC)C6)c5)cnc4N)nc3)c(C)n2C)c1` gave an IC50 in assay [3] of less than 4 nM.

Consider `CN(CCCCCC(=O)Nc1ccc2c(c1)C(=O)N(C1CCC(=O)N(C)C1=O)C2=O)CC[C@@H](c1ccccc1)n1cc(NC(=O)c2n[nH]c3c2CCC(C)(C)C3)cn1` (some centres not stated), for which the concentration for a half-maximal effect (EC50) result in assay [1] (jurkat) is reported as “Not Active”.

In the case of `CN(CCOCCOCCOCC(=O)Nc1cccc2c1C(=O)N(C1CCC(=O)NC1=O)C2=O)CC[C@@H](c1ccccc1)n1cc(NC(=O)c2n[nH]c3c2CCC(C)(C)C3)cn1` (some centres not stated), the EC50 in assay [1] (read-out: EC50) was found to be 353 nM. The Emax in assay [2] was 75%.

In the case of `CN(CCOCCOCCOCCOCC(=O)Nc1ccc2c(c1)C(=O)N(C1CCC(=O)NC1=O)C2=O)CC[C@@H](c1ccccc1)n1cc(NC(=O)c2n[nH]c3c2CCC(C)(C)C3)cn1` (some centres not stated), in assay [1] (read-out: EC50), the EC50 stood at 106 nM. In addition, in assay [2], the Emax amounted to 92%.

Take `CN(CCOCCOCCOCCOCC(=O)Nc1cccc2c1C(=O)N(C1CCC(=O)NC1=O)C2=O)CC[C@@H](c1ccccc1)n1cc(NC(=O)c2n[nH]c3c2CCC(C)(C)C3)cn1` (some centres not stated): in assay [1] (read-out: EC50), the EC50 was 286 nM. In addition, the Emax in assay [2] is 75%.

In the case of `CN(CCOCCOCCOCC(=O)Nc1ccc2c(c1)C(=O)N(C1CCC(=O)NC1=O)C2=O)CC[C@@H](c1ccccc1)n1cc(NC(=O)c2n[nH]c3c2CCC(C)(C)C3)cn1` (some centres not stated), in assay [1] (read-out: EC50), the EC50 was 94.1 nM. Also, the maximal effect (Emax) in assay [2] is 93%.

With `COc1cc(C)c(Sc2cnc(NC(=O)c3ccc(CNC(C)C(C)(C)C)cc3)s2)cc1C(=O)N1CCN(C(C)=O)CC1` (configuration not stated), at Interleukin-2, the EC50 was 238 nM.

Regarding `CN(CCCCCCC(=O)Nc1ccc2c(c1)C(=O)N(C1CCC(=O)NC1=O)C2=O)CC[C@@H](c1ccccc1)n1cc(NC(=O)c2n[nH]c3c2CCC(C)(C)C3)cn1` (some centres not stated), the EC50 in assay [1] (read-out: EC50) stood at 9 nM. In assay [2], the Emax came out at 90%.

Take `CN(CCOCCOCCOCCNC(=O)CNc1cccc2c1C(=O)N(C1CCC(=O)NC1=O)C2=O)CC[C@@H](c1ccccc1)n1cc(NC(=O)c2n[nH]c3c2CCC(C)(C)C3)cn1` (some centres not stated): the EC50 in assay [1] (read-out: EC50) is 62.2 nM. For the same compound, the Emax in assay [2] turned out to be 93%.

Consider `CN(CCOCCOCCNC(=O)CNc1cccc2c1C(=O)N(C1CCC(=O)NC1=O)C2=O)CC[C@@H](c1ccccc1)n1cc(NC(=O)c2n[nH]c3c2CCC(C)(C)C3)cn1` (some centres not stated), for which, in assay [1] (read-out: EC50), the EC50 was determined as 32.7 nM. Besides, the Emax in assay [2] was 95%.

Turning to `CC1(C)CCc2c(C(=O)Nc3cnn([C@@H](CCN4CCN(CCC5CN(c6ccc7c(c6)C(=O)N(C6CCC(=O)NC6=O)C7=O)C5)CC4)c4ccccc4)c3)n[nH]c2C1` (some centres not stated), the EC50 in assay [1] (read-out: EC50) was 142 nM. Besides, in assay [2], the Emax is 90%.

`CC1(C)CCc2c(C(=O)Nc3cnn([C@@H](CCN4CCN(CC5CN(c6ccc7c(c6)C(=O)N(C6CCC(=O)NC6=O)C7=O)C5)CC4)c4ccccc4)c3)n[nH]c2C1` (some centres not stated): the EC50 in assay [1] (read-out: EC50) is 10 nM. Also, the Emax in assay [2] is 85%.

In the case of `CN(CCCCC(=O)Nc1ccc2c(c1)C(=O)N(C1CCC(=O)NC1=O)C2=O)CC[C@@H](c1ccccc1)n1cc(NC(=O)c2n[nH]c3c2CCC(C)(C)C3)cn1` (some centres not stated), the EC50 in assay [1] (read-out: EC50) was 5.3 nM. In addition, the Emax in assay [2] stood at 90%.

Turning to `CC1(C)CCc2c(C(=O)Nc3cnn([C@@H](CCN4CCN(CC5CCN(c6ccc7c(c6)C(=O)N(C6CCC(=O)NC6=O)C7=O)CC5)CC4)c4ccccc4)c3)n[nH]c2C1` (some centres not stated), in assay [1] (read-out: EC50), the EC50 was 29.3 nM. In addition, in assay [2], the Emax came out at 90%.

Regarding `CN(CCOCCOCC(=O)Nc1cccc2c1C(=O)N(C1CCC(=O)NC1=O)C2=O)CC[C@@H](c1ccccc1)n1cc(NC(=O)c2n[nH]c3c2CCC(C)(C)C3)cn1` (some centres not stated), in assay [1] (read-out: EC50), the EC50 is 220 nM. Also, the Emax in assay [2] stood at 75%.
